For series [1], the system named is hairless female SKH, 1-hr mice. The series can be described thus: Animal model for reversal of wrinkles: skin thickness model, topical dosing, skin thickness and hyaluronic acid. It is filed as in vivo, mouse. The following applies: three days. The text has this:
Animal Model for Reversal of Wrinkles
Uzuka et al. describes an increase in mouse back skin water content, hyaluronic acid (HA) content, and hyaluronic acid synthetase activity following topical application or subcutaneous injection of estradiol (Biochimica et Biophysica Acta, 627, 199-206, 1980; Biochimica et Biophysica Acta 673, 387-393, 1981). […] Thus, this model may be used to as a preliminary screen to assess the potential for estrogen modulators to alleviate wrinkles in human skin.
The skin thickness model uses hairless female SKH, 1-hr mice. Mice aged to approximately 11 weeks are introduced into the laboratory environment and acclimated for at least 1 week prior to use in the study may be used. Each group typically consisted of 7 animals that may be run in parallel with vehicle and the positive control estradiol. Based on binding and/or cellular assay data, compounds are chosen for screening in this model. Those compounds include the products of Examples, 2, 9, 15, 46, 47, 48, 51, 52, 61, 135, and 137. Prior to topical application to mouse dorsal skin, a sufficient quantity of each compound is dissolved in a solvent generally consisting of ethanol and propylene glycol (70/30% v/v) (vehicle) to achieve the final concentration specified in Table C below. Animals are dosed topically QD or BID, for three days. Each dose consisted of 100 microliters of vehicle or drug applied uniformly to the entire dorsal surface (˜18 cm^2). All animals are sacrificed approximately 18-24 hours after the final dose. Skin thickness (ST) is measured using a caliper. HA is extracted from the skin and quantitated using commercially-available enzyme-linked immunosorbent assays (ELISAs)(HA).
Data are presented as percent of the estradiol response after subtracting out the ST for vehicle-treated mouse skin. The estradiol response is set to 100% and the vehicle resoibse becines 0%.

For series [2], the target named is ligand binding domain of the estrogen receptor beta chain (ERβLBD) that contained a point mutation at amino acid residue 418 (pm418) (Homo sapiens, UniProt Q92731). As to the kind of experiment: ER agonist cell assay (ERβ), Huh-7 co-transfection, luciferase. As to conditions: for EC50: Huh-7 cells co-transfected with pG5luc and ERβLBD(pm418), overnight incubation, luciferase; for ERβ % of Max E2 Response: percent of the maximum estradiol fold change, Huh-7, pG5luc and ERβLBD(pm418). It counts as cell-based.

Series [3] deals with T1, ligand binding domain of the estrogen receptor alpha chain (ERαLBD) (Homo sapiens, UniProt P03372).
T1 construct: expressed in transfected cells; host or cells: Huh-7 human hepatoma cells, transient transfection with FuGENE 6
T1 sequence (P03372 311-547 limits assumed): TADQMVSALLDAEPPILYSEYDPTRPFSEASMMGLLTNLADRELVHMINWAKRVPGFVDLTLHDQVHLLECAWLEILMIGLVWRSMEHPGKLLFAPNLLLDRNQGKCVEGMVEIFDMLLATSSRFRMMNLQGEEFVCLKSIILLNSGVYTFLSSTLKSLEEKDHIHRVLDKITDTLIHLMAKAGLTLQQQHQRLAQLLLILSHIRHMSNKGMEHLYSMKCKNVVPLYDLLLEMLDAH
The series can be described thus: ER agonist cell assay (ERα), Huh-7 co-transfection, luciferase. It counts as cell-based. As to conditions: for EC50: Huh-7 cells co-transfected with pG5luc and ERαLBD, overnight incubation, luciferase; for ERα % of Max E2 Response: percent of the maximum estradiol fold change, Huh-7, pG5luc and ERαLBD.

Where [4] appears, read: 1% topical, BID, vehicle 0%, estradiol 100%.

Where “and” joins values, the source holds several entries; their conditions need not be identical. Identical values can stand only once.

As a reminder, the melting point is the temperature, or range, at which the solid turns liquid. Compound `OCC1(c2onc(-c3ccc(O)cc3)c2-c2ccccc2)CC1` [Example 2, 4-[5-(1-Hydroxymethyl-cyclopropyl)-4-phenyl-isoxazol-3-yl]-phenol] showed a melting point of 210 to 211 °C. Besides, in series [1] (1% topical, QD), the “HA (hyaluronic acid), percent of the estradiol response” value (“HA (hyaluronic acid), percent” for short) turned out to be 15% and the “ST (skin thickness), percent of the estradiol response” value (from here on “ST (skin thickness), percent”) was found to be 19%.

A word on the EC50: it is the concentration at which the effect is half-maximal. The low end stands for an effect from little substance, the high end for a need for much substance. In turn, `CC(C)COC(=O)C1(c2onc(-c3ccc(O)cc3)c2-c2ccccc2)CC1` [Example 60, 1-[3-(4-Hydroxy-phenyl)-4-phenyl-isoxazol-5-yl]-cyclopropanecarboxylic acid isobutyl ester] displayed a melting point of 109 to 110 °C. In series [2], the EC50 was more than 10000 nM and the “ERβ % of Max E2 Response” value is listed as more than 3.71%. Further, in series [3], the response was half-maximal at 12.9 nM (EC50) and the “ERα % of Max E2 Response” value is listed as 23.3%.

Turning to `CCC(O)C1(c2onc(-c3ccc(O)cc3)c2-c2ccccc2)CC1` (racemic) [Example 47, (±)-4-{5-[1-(1-Hydroxy-propyl)-cyclopropyl]-4-phenyl-isoxazol-3-yl}-phenol], the melting point lay within 175 to 176 °C. Further, in series [1] (setting [4]), the “HA (hyaluronic acid), percent” value was determined as 59% and the “ST (skin thickness), percent” value came out at 53%. In addition, in series [2], a half-maximal response (EC50) required 144 nM and the “ERβ % of Max E2 Response” value was found to be 87.4%. Further, in series [3], the EC50 came to 22.4 nM and the “ERα % of Max E2 Response” value is 92%.

`CCOc1ccccc1OCC1(c2onc(-c3ccc(O)cc3)c2-c2ccccc2)CC1` [Example 4, 4-{5-[1-(2-Ethoxy-phenoxymethyl)-cyclopropyl]-4-phenyl-isoxazol-3-yl}-phenol] showed a melting point of 148 to 149 °C. Besides, in series [2], the EC50 is more than 10000 nM and the “ERβ % of Max E2 Response” value is given as more than 0.727%. Also, in series [3], the EC50 stood at 141 nM and the “ERα % of Max E2 Response” value amounted to 14.7%.

`CC(O)C1(c2onc(-c3ccc(O)cc3)c2-c2ccccc2)CC1` (racemic) [Example 45, (±)-4-{5-[1-(1-Hydroxy-ethyl)-cyclopropyl]-4-phenyl-isoxazol-3-yl}-phenol] had a melting point of 196 to 197 °C. In addition, in series [2], the EC50 was found to be 46.7 nM and the “ERβ % of Max E2 Response” value came to 81.2%. Besides, in series [3], the EC50 came out at 47.5 nM and the “ERα % of Max E2 Response” value came out at 79.3%.

`Oc1ccc(-c2noc(C3(COc4c(F)cccc4OC(F)(F)F)CC3)c2-c2ccccc2)cc1` [Example 5, 4-{5-[1-(2-Fluoro-6-trifluoromethoxy-phenoxymethyl)-cyclopropyl]-4-phenyl-isoxazol-3-yl}-phenol] returned a melting point of 132 to 133 °C. Besides, in series [2], the EC50 is more than 10000 nM and the “ERβ % of Max E2 Response” value is recorded as more than 4.51%. In series [3], the EC50 was found to be 45.9 nM and the “ERα % of Max E2 Response” value is 19.3%.

`CC[C@@H](O)C1(c2onc(-c3ccc(O)cc3)c2-c2ccccc2)CC1` [Example 48, (R)-(−)-4-{5-[1-(1-Hydroxy-propyl)-cyclopropyl]-4-phenyl-isoxazol-3-yl}-phenol] displayed a melting point of 163 to 164 °C. In addition, in series [1] (0.03% topical, BID), the “HA (hyaluronic acid), percent” value turned out to be 26% and the “ST (skin thickness), percent” value is given as 33%. Besides, in series [1] (0.03% topical, QD), the “HA (hyaluronic acid), percent” value stood at 18% and the “ST (skin thickness), percent” value turned out to be 13%. Moreover, in series [1] (0.1% topical, BID), the “HA (hyaluronic acid), percent” value is 63% and the “ST (skin thickness), percent” value came to 58%. In series [1] (0.1% topical, QD), the “HA (hyaluronic acid), percent” value came out at 32% and the “ST (skin thickness), percent” value was 29%. Moreover, in series [1] (0.3% topical, BID), the “HA (hyaluronic acid), percent” value came to 96% and the “ST (skin thickness), percent” value was 80%. Moreover, in series [1] (0.3% topical, QD), the “HA (hyaluronic acid), percent” value is reported as 41% and the “ST (skin thickness), percent” value is on record as 57%. In addition, in series [1] (0.5% topical, BID), the “HA (hyaluronic acid), percent” value is given as 84% and the “ST (skin thickness), percent” value came out at 78%. Further, the “ST (skin thickness), percent” value in series [1] (setting [4]) is 72% and 89%. For the same compound, in series [1] (1% topical, QD), the “HA (hyaluronic acid), percent” value was 47% and 42%; the “ST (skin thickness), percent” value is 64% and 41%. In series [2], the EC50 came to 84.7 nM and the “ERβ % of Max E2 Response” value is listed as 71.8%. For the same compound, in series [3], it took 31.3 nM to reach a half-maximal effect (EC50) and the “ERα % of Max E2 Response” value was 88.8%.

`CCOc1ncccc1OCC1(c2onc(-c3ccc(O)cc3)c2-c2ccccc2)CC1` [Example 6, 4-{5-[1-(2-Ethoxy-pyridin-3-yloxymethyl)-cyclopropyl]-4-phenyl-isoxazol-3-yl}-phenol] yielded a melting point of 190 to 192 °C. In addition, in series [2], the EC50 was more than 10000 nM and the “ERβ % of Max E2 Response” value is more than 3.19%. Besides, in series [3], the EC50 was found to be 237 nM and the “ERα % of Max E2 Response” value was found to be 9.48%.

In the case of `Oc1ccc(-c2noc(C3CC3)c2-c2ccccc2)cc1` [Example 35, 4-(5-Cyclopropyl-4-phenyl-isoxazol-3-yl)-phenol], the melting point lay in the range of 197 to 200 °C. For the same compound, in series [2], the EC50 stood at 130 nM and the “ERβ % of Max E2 Response” value was 5.78%. Moreover, in series [3], the midpoint of the response, the EC50, lay at 171 nM and the “ERα % of Max E2 Response” value turned out to be 25%.

For the compound `C[C@@H](O)C1(c2onc(-c3ccc(O)cc3)c2-c2ccccc2)CC1` [Example 46, (R)-(−)-4-{5-[1-(1-Hydroxy-ethyl)-cyclopropyl]-4-phenyl-isoxazol-3-yl}-phenol], the melting point lay in the range of 219 to 221 °C. In series [1] (0.015% topical, BID), the “HA (hyaluronic acid), percent” value stood at 11% and the “ST (skin thickness), percent” value stood at 20%. In addition, in series [1] (0.05% topical, BID), the “HA (hyaluronic acid), percent” value was 52% and the “ST (skin thickness), percent” value came to 47%. Besides, in series [1] (0.15% topical, BID), the “HA (hyaluronic acid), percent” value is given as 55% and the “ST (skin thickness), percent” value stood at 65%. Besides, in series [1] (0.5% topical, BID), the “HA (hyaluronic acid), percent” value was 39% and 68% and 76%; the “ST (skin thickness), percent” value is 53% and 71% and 73%. In series [1] (1% topical, QD), the “HA (hyaluronic acid), percent” value amounted to 48% and the “ST (skin thickness), percent” value amounted to 36%. In series [2], the EC50 was found to be 43.2 nM and the “ERβ % of Max E2 Response” value came to 99.7%. Moreover, in series [3], the concentration giving a half-maximal response (EC50) came to 33.1 nM and the “ERα % of Max E2 Response” value is reported as 106%.

The values are drawn from patent publication US7470715B2, “Estrogen modulators” (Pfizer Inc., priority 2005, dated 2008).
